Experimental findings from US10508077B2 (FORMA Therapeutics, Inc., priority 2015, dated 2019) are described below.

One assay deals with T1, Recombinant N-terminal GST tag full-length human HDAC8 (Homo sapiens, UniProt Q9BY41).
T1 construct: Recombinant N-terminal GST tag full-length human HDAC8; purchased SignalChem H90-30G-1000; host or cells: Sf9 insect cells (baculovirus)
T1 sequence (Q9BY41 1-377): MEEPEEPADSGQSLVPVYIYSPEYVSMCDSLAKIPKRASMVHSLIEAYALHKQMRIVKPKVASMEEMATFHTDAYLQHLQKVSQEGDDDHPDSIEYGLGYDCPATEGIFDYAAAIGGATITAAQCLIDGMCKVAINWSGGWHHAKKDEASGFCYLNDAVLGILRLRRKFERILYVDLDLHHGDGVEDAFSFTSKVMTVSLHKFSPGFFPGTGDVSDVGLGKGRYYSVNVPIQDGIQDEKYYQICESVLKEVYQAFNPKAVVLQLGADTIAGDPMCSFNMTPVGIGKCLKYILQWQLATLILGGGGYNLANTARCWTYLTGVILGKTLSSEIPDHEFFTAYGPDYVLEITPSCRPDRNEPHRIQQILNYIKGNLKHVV
Briefly: HDAC8 probe binding assay, time resolved fluorescence (TRF). To be noted: fluorescein labeled pan-HDAC inhibitor probe, 16 hours incubation, compounds listed under IC50 range headings. How it is done:
The HDAC8 probe binding assay was performed using a time resolved fluorescence (TRF) assay format. Recombinant N-terminal GST tag full-length human HDAC8 was expressed and purified from baculovirus in Sf9 insect cells (SignalChem, #H90-30G-1000), Each assay was performed in 1536 black well microplates (Corning, #3936) in a final volume of 4 μL in assay buffer containing 50 mM HEPES (pH 7.5), 50 mM KCl, 50 mM NaCl, 0.5 mM GSH (L-Glutathione reduced, Sigma #G4251), 0.03% BGG (0.22 μM filtered, Sigma, #G7516-25G), and 0.01% Triton X-100 (Sigma, #T9284-10L). 20 nL of 10-point, 3-fold serial dilution in DMSO was pre-dispensed into respective wells of 1536 assay plates for a final test concentration range of 25 μM to 1.3 nM respectively. The final concentration in the assay of HDAC8 and probe (a fluorescein labeled pan-HDAC inhibitor) was 2.5 nM and 1.5 nM respectively. 2 μL of 2× probe and 2× anti-GST Terbium (Cisbio, #61GSTXLB) was added to assay plates followed by 2 μL of 2× HDAC8. Plates were incubated for 16 hours at room temperature before time resolved fluorescence was read on the Envision (Excitation at 340 nm, and Emission at 485 nm and 535 nm, Perkin Elmer).
Data from HDAC8 Assays were reported as percent inhibition (inh) compared with control wells based on the following equation: % inh=1−((FLU−AveLow)/(AveHigh−AveLow)) where FLU=measured time resolved fluorescence. AveLow=average time resolved fluorescence of no enzyme control (n=32). AveHigh=average time resolved fluorescence of DMSO control (n=32). IC50 values were determined by curve fitting of the standard 4 parameter logistic fitting algorithm included in the Activity Base software package: IDBS XE Designer Model205. Data is fitted using the Levenburg Marquardt algorithm.
Usually IC50 stands for the point on the concentration scale where inhibition reaches its midpoint. With `O=C(/C=C/c1ccccc1N1CCN(Cc2ccccc2)CC1=O)NO` [Example I-495, (E)-3-(2-(4-benzyl-2-oxopiperazin-1-yl)phenyl)-N-hydroxyacrylamide], the IC50 is not above 1000 nM.

With `O=C(/C=C/c1ccccc1N1CCN(c2ccc(F)cc2)C1=O)NO` [Example I-501, (E)-3-(2-(3-(4-fluorophenyl)-2-oxoimidazolidin-1-yl)phenyl)-N-hydroxyacrylamide], the IC50 was not above 1000 nM.

Turning to `O=C(/C=C/c1ccccc1N1CCN(c2ccc(OC(F)(F)F)cc2)CC1=O)NO` [Example I-503, (E)-N-hydroxy-3-(2-(2-oxo-4-(4-(trifluoromethoxy)phenyl)piperazin-1-yl)phenyl)acrylamide], the IC50 was not above 1000 nM.

As to `O=C(/C=C/c1ccccc1N1CCN(c2ccc(F)cc2)CC1=O)NO` [Example I-504, (E)-3-(2-(4-(4-fluorophenyl)-2-oxopiperazin-1-yl)phenyl)-N-hydroxyacrylamide], the IC50 was not above 1000 nM.

As to `COc1cc(F)ccc1Oc1ccccc1C(=O)Nc1ccccc1/C=C/C(=O)NO` [Example I-546, (E)-2-(4-fluoro-2-methoxyphenoxy)-N-(2-(3-(hydroxyamino)-3-oxoprop-1-en-1-yl)phenyl)benzamide], the IC50 was not above 1000 nM.

As for `Cn1cc(Oc2ccccc2C(=O)Nc2ccccc2/C=C/C(=O)NO)cn1` [Example I-548, N-{2-[(1E)-2-(hydroxycarbamoyl)eth-1-en-1-yl]phenyl}-2-[(1-methyl-1H-pyrazol-4-yl)oxy]benzamide], the half-inhibitory concentration (IC50) is not above 1000 nM.

As to `O=C(/C=C/c1cc(Cl)ccc1NC(=O)c1ccccc1Oc1ccc(F)cc1)NO` [Example I-549, N-{4-chloro-2-[(1E)-2-(hydroxycarbamoyl)eth-1-en-1-yl]phenyl}-2-(4-fluorophenoxy)benzamide], the 50% inhibitory concentration (IC50) is not above 1000 nM.

Take `CC(C)(C)OC(=O)N1CCCC12CN(c1ccccc1/C=C/C(=O)NO)C2` [Example I-550, tert-butyl (E)-2-(2-(3-(hydroxyamino)-3-oxoprop-1-en-1-yl)phenyl)-2,5-diazaspiro[3.4]octane-5-carboxylate]: the IC50 was not above 1000 nM.

With `COc1ccc(F)cc1Oc1ccccc1C(=O)Nc1ccccc1/C=C/C(=O)NO` [Example I-551, 2-(5-fluoro-2-methoxyphenoxy)-N-{2-[(1E)-2-(hydroxycarbamoyl)eth-1-en-1-yl]phenyl}benzamide], the 50% inhibitory concentration (IC50) was not above 1000 nM.

Take `COc1cccc(Oc2ccccc2C(=O)Nc2ccccc2/C=C/C(=O)NO)c1` [Example I-552, N-{2-[(1E)-2-(hydroxycarbamoyl)eth-1-en-1-yl]phenyl}-2-(3-methoxyphenoxy)benzamide]: the IC50 was not above 1000 nM.

As to `COc1cnccc1Oc1ccccc1C(=O)Nc1ccccc1/C=C/C(=O)NO` [Example I-553, N-{2-[(1E)-2-(hydroxycarbamoyl)eth-1-en-1-yl]phenyl}-2-[(3-methoxypyridin-4-yl)oxy]benzamide], the IC50 was not above 1000 nM.

Another assay has as its target T2, Full length human recombinant HDAC8 protein (Homo sapiens, UniProt Q9BY41).
T2 construct: Full length human recombinant HDAC8 protein was expressed in baculoviral system; made in house
T2 sequence (Q9BY41 1-377): T1 sequence (Q9BY41 1-377)
Briefly: In vitro histone deacetylase assay: enzymatic HDAC8 assay, electrophoretic mobility shift. Type of assay: biochemical. To be noted: substrate RHKK(Ac)-NH2, 1 nM enzyme, compounds listed under IC50 range headings. In outline: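 Readout was microfluidic mobility-shift separation of deacetylated product from fluorescent RHKK(Ac)-NH2 substrate (2 µM), after reaction with 1 nM recombinant full-length human HDAC8 at 25 °C, pH 7.5, stopped with SDS. Twelve 3-fold-spaced concentrations tested; product/sum ratios normalized to controls and fitted with a 4-parameter model for IC50.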
A general note: Mobility shift assays separate free from complexed probe on a gel.
In the case of `COc1ccc(CNC(=O)c2ccccc2/C=C/C(=O)NO)cc1` [II-5, (E)-2-(3-(hydroxyamino)-3-oxoprop-1-en-1-yl)-N-(4-methoxybenzyl)benzamide], the concentration for half-maximal inhibition (IC50) was 1000 to 10000 nM.

For the molecule `O=C(/C=C/c1ccccc1C(=O)NCCc1ccc(F)cc1)NO` [II-6, (E)-N-(4-fluorophenethyl)-2-(3-(hydroxyamino)-3-oxoprop-1-en-1-yl)benzamide], the IC50 is 1000 to 10000 nM.

With `O=C(/C=C/c1ccccc1C(=O)NCc1ccc(-c2ccccc2)cc1)NO` [II-7, (E)-N-([1,1′-biphenyl]-4-ylmethyl)-2-(3-(hydroxyamino)-3-oxoprop-1-en-1-yl)benzamide], the half-inhibitory concentration (IC50) lay within 1000 to 10000 nM.

As to `CC(=O)NC1CCN(C(=O)c2ccccc2/C=C/C(=O)NO)CC1` [II-8, (E)-3-(2-(4-acetamidopiperidine-1-carbonyl)phenyl)-N-hydroxyacrylamide], the half-inhibitory concentration (IC50) was in the range of 1000 to 10000 nM.

On to `O=C(/C=C/c1ccccc1C(=O)N1CCC2(CC1)OCc1ccccc12)NO` [II-9, (E)-3-(2-(3H-spiro[isobenzofuran-1,4′-piperidine]-1′-carbonyl)phenyl)-N-hydroxyacrylamide], for which the IC50 lay within 1000 to 10000 nM.

`O=C(/C=C/c1ccccc1C(=O)N1CC(N2CCS(=O)(=O)CC2)C1)NO` [II-10, (E)-3-(2-(3-(1,1-dioxidothiomorpholino)azetidine-1-carbonyl)phenyl)-N-hydroxyacrylamide]: the IC50 is 1000 to 10000 nM.

With `COCC1(N(C)C(=O)c2ccccc2/C=C/C(=O)NO)CC1` [II-11, (E)-2-(3-(hydroxyamino)-3-oxoprop-1-en-1-yl)-N-(1-(methoxymethyl)cyclopropyl)-N-methylbenzamide], the concentration for half-maximal inhibition (IC50) is 1000 to 10000 nM.

For `O=C(/C=C/c1ccccc1C(=O)N1C2CCC1CC2)NO` [II-12, (E)-3-(2-(7-azabicyclo[2.2.1]heptane-7-carbonyl)phenyl)-N-hydroxyacrylamide], the IC50 was 1000 to 10000 nM.

Take `O=C(/C=C/c1ccccc1C(=O)NC1CCCCC1)NO` [II-13, (E)-N-cyclohexyl-2-(3-(hydroxyamino)-3-oxoprop-1-en-1-yl)benzamide]: the IC50 was less than 1000 nM.

With `CCCCc1ccc(NC(=O)c2ccccc2/C=C/C(=O)NO)cc1` [II-14, (E)-N-(4-butylphenyl)-2-(3-(hydroxyamino)-3-oxoprop-1-en-1-yl)benzamide], the IC50 was less than 1000 nM.

`O=C(/C=C/c1ccccc1C(=O)N1CCCCC1)NO` [II-16, (E)-N-hydroxy-3-(2-(piperidine-1-carbonyl)phenyl)acrylamide]: the half-maximal inhibitory concentration (IC50) is less than 1000 nM.

Take `O=C(/C=C/c1ccccc1C(=O)N1CCC(F)(F)CC1)NO` [II-17, (E)-3-(2-(4,4-difluoropiperidine-1-carbonyl)phenyl)-N-hydroxyacrylamide]: the 50% inhibitory concentration (IC50) is less than 1000 nM.

With `CN(Cc1cccc(C(F)(F)F)c1)C(=O)c1ccccc1/C=C/C(=O)NO` [II-18], the half-inhibitory concentration (IC50) was less than 1000 nM.

With `O=C(/C=C/c1ccccc1C(=O)N1CCN(c2ccccc2)CC1)NO` [II-19, (E)-N-hydroxy-3-(2-(4-phenylpiperazine-1-carbonyl)phenyl)acrylamide], the IC50 is less than 1000 nM.

On to `O=C(/C=C/c1ccccc1C(=O)N1CCN(c2ccncc2)CC1)NO` [II-20], for which the half-inhibitory concentration (IC50) was less than 1000 nM.

Regarding `O=C(/C=C/c1ccccc1C(=O)N1CCN(CCc2ccccc2)CC1)NO` [II-21, (E)-N-hydroxy-3-(2-(4-phenethylpiperazine-1-carbonyl)phenyl)acrylamide], the IC50 was less than 1000 nM.

For the molecule `O=C(/C=C/c1ccccc1C(=O)N1CCC(C(F)(F)F)CC1)NO` [II-23, (E)-N-hydroxy-3-(2-(4-(trifluoromethyl)piperidine-1-carbonyl)phenyl)acrylamide], the concentration for half-maximal inhibition (IC50) was less than 1000 nM.

As to `O=C(/C=C/c1ccccc1C(=O)N1CCS(=O)(=O)CC1)NO` [II-24, (E)-3-(2-(1,1-dioxidothiomorpholine-4-carbonyl)phenyl)-N-hydroxyacrylamide], the IC50 was less than 1000 nM.

For the molecule `Cn1cc2c(n1)CCN(C(=O)c1ccccc1/C=C/C(=O)NO)C2` [II-25, (E)-N-hydroxy-3-(2-(2-methyl-4,5,6,7-tetrahydro-2H-pyrazolo[4,3-c]pyridine-5-carbonyl)phenyl)acrylamide], the IC50 was less than 1000 nM.

With `Cc1nnc(C)n1C1CCN(C(=O)c2ccccc2/C=C/C(=O)NO)CC1` [II-26, (E)-3-(2-(4-(3,5-dimethyl-4H-1,2,4-triazol-4-yl)piperidine-1-carbonyl)phenyl)-N-hydroxyacrylamide], the IC50 was less than 1000 nM.

On to `O=C(/C=C/c1ccccc1S(=O)(=O)C1CCN(Cc2ccccc2)CC1)NO` [II-30, (E)-3-(2-((1-benzylpiperidin-4-yl)sulfonyl)phenyl)-N-hydroxyacrylamide], for which the IC50 was less than 1000 nM.

For the molecule `O=C(/C=C/c1ccccc1C(=O)Nc1cccc(C(F)(F)F)c1)NO` [II-36, (E)-2-(3-(hydroxyamino)-3-oxoprop-1-en-1-yl)-N-(3-(trifluoromethyl)phenyl)benzamide], the 50% inhibitory concentration (IC50) was less than 1000 nM.
